The source of these data is patent publication US12479830B2, “Homopiperazinyl and homopiperidinyl quinazolin-4(3H)-one derivatives having multimodal activity against pain” (ESTEVE PHARMACEUTICALS, S.A., priority 2019, dated 2025).

A value given as a limit tells only on which side of the number the result lay.

One assay has as its target T1, Human σ1 receptor (Homo sapiens, UniProt Q99720).
T1 construct: expressed in transfected cells; host or cells: HEK-293
The assay can be described thus: Human σ1 receptor radioligand assay ([3H](+)-pentazocine binding). The following applies: binding to the σ1 receptor, expressed as Ki class; + also covers inhibition between 1% and 50%. The essentials:
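Membranes (7 μg) were incubated with 5 nM [3H](+)-pentazocine in 50 mM Tris-HCl pH 8 for 120 min at 37° C. Non-specific binding was defined with 10 μM haloperidol. Values are % inhibition at 1 or 10 μM or Ki from five concentrations, read by filtration and scintillation counting.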

Assay [1] deals with Human α2δ-1 subunit of Cav2.2 calcium channel (Homo sapiens, UniProt P54289). The assay can be described thus: Human α2δ-1 subunit of Cav2.2 calcium channel assay ([3H]-gabapentin binding). The following applies: binding to the α2δ-1 subunit of voltage-gated calcium channels, expressed as Ki class; + also covers inhibition between 1% and 50%. The essentials: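 Human α2δ-1 enriched membranes (2.5 μg) incubated 60 min at 27° C. with 15 nM [3H]-gabapentin in 10 mM Hepes-KOH pH 7.4; non-specific binding with 10 μM pregabalin. Filtration binding; % inhibition at 1 or 10 μM, or Ki from five concentrations.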
Sequence of Human α2δ-1 subunit of Cav2.2 calcium channel (P54289 25-1103): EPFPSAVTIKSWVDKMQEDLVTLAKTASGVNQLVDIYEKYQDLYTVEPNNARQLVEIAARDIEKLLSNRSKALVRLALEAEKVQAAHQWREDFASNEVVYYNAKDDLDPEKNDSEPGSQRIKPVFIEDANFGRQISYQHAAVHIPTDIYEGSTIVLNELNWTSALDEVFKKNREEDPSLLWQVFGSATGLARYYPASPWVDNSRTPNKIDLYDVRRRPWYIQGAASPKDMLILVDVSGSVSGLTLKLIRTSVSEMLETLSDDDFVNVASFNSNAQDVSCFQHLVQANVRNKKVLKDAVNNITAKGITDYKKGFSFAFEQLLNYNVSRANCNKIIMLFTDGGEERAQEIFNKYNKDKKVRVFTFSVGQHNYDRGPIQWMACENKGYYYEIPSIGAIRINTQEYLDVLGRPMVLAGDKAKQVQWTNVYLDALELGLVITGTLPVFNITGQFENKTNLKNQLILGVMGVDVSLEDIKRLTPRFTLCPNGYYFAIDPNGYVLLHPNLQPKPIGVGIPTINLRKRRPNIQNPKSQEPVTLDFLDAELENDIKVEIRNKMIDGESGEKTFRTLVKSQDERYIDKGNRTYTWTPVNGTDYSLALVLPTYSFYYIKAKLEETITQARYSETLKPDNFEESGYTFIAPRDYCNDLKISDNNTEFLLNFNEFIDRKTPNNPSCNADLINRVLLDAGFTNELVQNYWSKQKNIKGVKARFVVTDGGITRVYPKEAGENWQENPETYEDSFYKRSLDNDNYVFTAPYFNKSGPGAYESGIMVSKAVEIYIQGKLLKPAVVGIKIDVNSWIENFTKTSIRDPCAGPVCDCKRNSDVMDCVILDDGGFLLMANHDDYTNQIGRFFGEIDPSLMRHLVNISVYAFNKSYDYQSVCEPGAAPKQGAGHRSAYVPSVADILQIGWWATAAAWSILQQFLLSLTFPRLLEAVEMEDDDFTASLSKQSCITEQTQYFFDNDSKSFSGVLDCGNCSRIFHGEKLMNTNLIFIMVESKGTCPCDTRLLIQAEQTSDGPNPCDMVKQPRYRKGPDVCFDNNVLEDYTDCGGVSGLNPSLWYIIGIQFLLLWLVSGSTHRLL

T1 sequence (Q99720 whole entry): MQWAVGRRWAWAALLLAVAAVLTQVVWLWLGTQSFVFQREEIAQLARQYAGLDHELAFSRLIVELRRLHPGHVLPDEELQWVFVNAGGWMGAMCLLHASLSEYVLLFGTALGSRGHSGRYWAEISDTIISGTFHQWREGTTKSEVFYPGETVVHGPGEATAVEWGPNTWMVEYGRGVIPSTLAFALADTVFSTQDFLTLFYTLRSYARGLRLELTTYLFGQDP

For the compound `CCC[C@H](c1nc2cc(F)c(Br)cc2c(=O)n1CC)N1CCNC[C@@H](C)C1` [Example 97, 6-bromo-3-ethyl-7-fluoro-2-((R)-1-((R)-6-methyl-1,4-diazepan-1-yl)butyl)quinazolin-4(3H)-one], the Ki – broadly, a measure of affinity in units of concentration, obtained from inhibition or displacement – was 0.5 to 1 µM at Human σ1 receptor and less than 0.5 µM in assay [1].

For the compound `CCC[C@H](c1nc2ccc(OC)cc2c(=O)n1CC)N1CCCN(C)CC1` [Example 15, (R)-3-ethyl-6-methoxy-2-(1-(4-methyl-1,4-diazepan-1-yl)butyl)quinazolin-4(3H)-one], the inhibition constant Ki at Human σ1 receptor was more than 1 µM; in assay [1], less than 0.5 µM.

Regarding `CCC[C@H](c1nc2ccc(F)cc2c(=O)n1C(C)C)N1CCCN(C)CC1` [Example 222, (R)-6-fluoro-3-isopropyl-2-(1-(4-methyl-1,4-diazepan-1-yl)butyl)quinazolin-4(3H)-one], the Ki on Human σ1 receptor was 0.5 to 1 µM; in assay [1], more than 5 µM.

Consider `CCCC(c1nc2c(F)cc(Br)cc2c(=O)n1CC)N1CCCN(CC)CC1` (stereo not drawn) [Example 57, 6-bromo-3-ethyl-2-(1-(4-ethyl-1,4-diazepan-1-yl)butyl)-8-fluoroquinazolin-4(3H)-one], for which the values for the Ki (on Human σ1 receptor; in assay [1]) were 0.5 to 1 µM and 0.5 to 5 µM, respectively.

Take `CCC[C@@H](c1nc2ccncc2c(=O)n1CC)N1CCN(C)C[C@@H](C)C1` [Example 171, 2-((S)-1-((R)-4,6-dimethyl-1,4-diazepan-1-yl)butyl)-3-ethylpyrido[4,3-d]pyrimidin-4(3H)-one]: the Ki is more than 1 µM on Human σ1 receptor and more than 5 µM in assay [1].

Consider `CCC[C@H](c1nc2cc(Cl)c(Cl)cc2c(=O)n1CC)N1CCN(C)C[C@H](C)C1` [Example 131, 6,7-Dichloro-2-((R)-1-((S)-4,6-dimethyl-1,4-diazepan-1-yl)butyl)-3-ethylquinazolin-4(3H)-one], for which the inhibition constant (Ki) (on Human σ1 receptor; in assay [1]) was less than 0.5 µM throughout.

`CCC[C@H](c1nc2ccc(F)cc2c(=O)n1CC1CC1)N1CCCN(C)CC1` [Example 219, (R)-3-(cyclopropylmethyl)-6-fluoro-2-(1-(4-methyl-1,4-diazepan-1-yl)butyl)quinazolin-4(3H)-one]: the inhibition constant Ki (at Human σ1 receptor; in assay [1]) was less than 0.5 µM each time.

With `CCC[C@H](c1nc2cc(F)c(Cl)cc2c(=O)n1CC)N1CCN(C)C[C@@H](C)C1` [Example 136, 6-chloro-2-((R)-1-((R)-4,6-dimethyl-1,4-diazepan-1-yl)butyl)-3-ethyl-7-fluoroquinazolin-4(3H)-one], the values for the inhibition constant (Ki) (at Human σ1 receptor; in assay [1]) were 0.5 to 1 µM and less than 0.5 µM, respectively.

As to `CCCC(c1nc2ccc(Br)c(C)c2c(=O)n1CC)N1CCCN(CC)CC1` (stereo not drawn) [Example 47, 6-bromo-3-ethyl-2-(1-(4-ethyl-1,4-diazepan-1-yl)butyl)-5-methylquinazolin-4(3H)-one], the Ki at Human σ1 receptor was less than 0.5 µM; in assay [1], 0.5 to 5 µM.

For `CCC[C@@H](c1nc2cc(F)c(Br)cc2c(=O)n1CC)N1CCNC[C@H](C)C1` [Example 98], the inhibition constant (Ki) on Human σ1 receptor is more than 1 µM; in assay [1] it was 0.5 to 5 µM.

Take `CCCC(c1nc2ccc(F)c(F)c2c(=O)n1CC)N1CCCNCC1` (stereo not drawn) [Example 81, 2-(1-(1,4-diazepan-1-yl)butyl)-3-ethyl-5,6-difluoroquinazolin-4(3H)-one]: the Ki was 0.5 to 1 µM at Human σ1 receptor and less than 0.5 µM in assay [1].

Consider `CCCC(c1nc2ccc(-c3ccccc3)cc2c(=O)n1CC)N1CCCN(C)CC1` (stereo not drawn) [Example 204, 3-Ethyl-2-(1-(4-methyl-1,4-diazepan-1-yl)butyl)-6-phenylquinazolin-4(3H)-one], for which the results for the inhibition constant Ki (at Human σ1 receptor; in assay [1]) were more than 1 µM and less than 0.5 µM, respectively.

For `CCC[C@H](c1nc2cc(Cl)c(Cl)cc2c(=O)n1CC)N1CCNC[C@@H](C)C1` [Example 110, 6,7-dichloro-3-ethyl-2-((R)-1-((R)-6-methyl-1,4-diazepan-1-yl)butyl)quinazolin-4(3H)-one], the Ki was more than 1 µM on Human σ1 receptor and less than 0.5 µM in assay [1].

For `CCC[C@H](c1nc2ccc(F)cc2c(=O)n1CC(C)C)N1CCCN(C)CC1` [Example 214, (R)-6-fluoro-3-isobutyl-2-(1-(4-methyl-1,4-diazepan-1-yl)butyl)quinazolin-4(3H)-one], the inhibitory constant (Ki) (at Human σ1 receptor; in assay [1]) was less than 0.5 µM throughout.

On to `CCCC(c1nc2cc(F)c(F)cc2c(=O)n1CC)N1CCCNCC1` (stereo not drawn) [Example 45, 2-(1-(1,4-diazepan-1-yl)butyl)-3-ethyl-6,7-difluoroquinazolin-4(3H)-one], for which the values for the Ki (on Human σ1 receptor; in assay [1]) were more than 1 µM and less than 0.5 µM, respectively.

With `CCCC(c1nc2cc(F)c(Br)cc2c(=O)n1CC)N1CCCN(C)CC1` (stereo not drawn) [Example 13, 6-bromo-3-ethyl-7-fluoro-2-(1-(4-methyl-1,4-diazepan-1-yl)butyl)quinazolin-4(3H)-one], the Ki (on Human σ1 receptor; in assay [1]) was less than 0.5 µM each time.

For the compound `CCC[C@H](c1nc2ccc(F)cc2c(=O)n1C)N1CCCN(CC)CC1` [Example 217, (R)-2-(1-(4-ethyl-1,4-diazepan-1-yl)butyl)-6-fluoro-3-methylquinazolin-4(3H)-one], the Ki on Human σ1 receptor is less than 0.5 µM; in assay [1], more than 5 µM.

With `CCC[C@@H](c1nc2ccc(Br)cc2c(=O)n1CC)N1CCCN[C@H](C)C1` [Example 141, 6-bromo-3-ethyl-2-((S)-1-((R)-3-methyl-1,4-diazepan-1-yl)butyl)quinazolin-4(3H)-one], the inhibition constant (Ki) is 0.5 to 1 µM at Human σ1 receptor and more than 5 µM in assay [1].

In the case of `CCC[C@H](c1nc2ccc(Br)cc2c(=O)n1CC)N1CCCN[C@H](C)C1` [Example 139, 6-Bromo-3-ethyl-2-((R)-1-((R)-3-methyl-1,4-diazepan-1-yl)butyl)quinazolin-4(3H)-one], the Ki was 0.5 to 1 µM on Human σ1 receptor and less than 0.5 µM in assay [1].

As for `CCC[C@H](c1nc2ccc(F)cc2c(=O)n1CC)N1CCN[C@@H](C)CC1` [Example 236, 3-ethyl-6-fluoro-2-((R)-1-((S)-5-methyl-1,4-diazepan-1-yl)butyl)quinazolin-4(3H)-one], the inhibitory constant (Ki) (on Human σ1 receptor; in assay [1]) was less than 0.5 µM each time.

With `CCC[C@@H](c1nc2ncc(Br)cc2c(=O)n1CC)N1CCNC[C@H](C)C1` [Example 200, 6-bromo-3-ethyl-2-((S)-1-((S)-6-methyl-1,4-diazepan-1-yl)butyl)pyrido[2,3-d]pyrimidin-4(3H)-one], the Ki at Human σ1 receptor is more than 1 µM; in assay [1], more than 5 µM.

As to `CCC[C@H](c1nc2ccc(F)cc2c(=O)n1CC)N1CCCNC(C)(C)C1` [Example 253], the inhibition constant (Ki) is 0.5 to 1 µM at Human σ1 receptor and more than 5 µM in assay [1].

Consider `CCC[C@H](c1nc2cc(F)c(F)cc2c(=O)n1CC)N1CCN[C@@H](C)CC1` [Example 242, 3-ethyl-6,7-difluoro-2-((R)-1-((S)-5-methyl-1,4-diazepan-1-yl)butyl)quinazolin-4(3H)-one], for which the inhibition constant (Ki) (on Human σ1 receptor; in assay [1]) was less than 0.5 µM throughout.

Take `CCC[C@H](c1nc2cc(F)c(Cl)cc2c(=O)n1CC)N1CCN(C)C[C@H](C)C1` [Example 135, 6-Chloro-2-((R)-1-((S)-4,6-dimethyl-1,4-diazepan-1-yl)butyl)-3-ethyl-7-fluoroquinazolin-4(3H)-one]: the Ki (at Human σ1 receptor; in assay [1]) was less than 0.5 µM in each case.

With `CCCC(c1nc2ccc(F)cc2c(=O)n1CC)C1CCCNCC1` (stereo not drawn) [Example 266, 2-(1-(Azepan-4-yl)butyl)-3-ethyl-6-fluoroquinazolin-4(3H)-one], the inhibition constant Ki on Human σ1 receptor is more than 1 µM; in assay [1], less than 0.5 µM.

For the compound `CCC[C@H](c1nc2ccc(Br)cc2c(=O)n1CC)N1CC[C@H](C)N(C)CC1` [Example 262], the results for the inhibitory constant (Ki) (on Human σ1 receptor; in assay [1]) were 0.5 to 1 µM and less than 0.5 µM, respectively.

Consider `CCC[C@H](c1nc2ccc(F)cc2c(=O)n1CCC)N1CCCN(C)CC1` [Example 211, (R)-6-fluoro-2-(1-(4-methyl-1,4-diazepan-1-yl)butyl)-3-propylquinazolin-4(3H)-one], for which the inhibitory constant (Ki) (at Human σ1 receptor; in assay [1]) was less than 0.5 µM each time.

As to `CCC[C@H](c1nc2ccncc2c(=O)n1CC)N1CCN(C)C[C@@H](C)C1` [Example 168, 2-((R)-1-((R)-4,6-dimethyl-1,4-diazepan-1-yl)butyl)-3-ethylpyrido[4,3-d]pyrimidin-4(3H)-one], the inhibitory constant (Ki) at Human σ1 receptor is more than 1 µM; in assay [1], less than 0.5 µM.

Regarding `CCCC(c1nc2cc(Cl)c(Cl)cc2c(=O)n1CC)N1CCCNCC1` (stereo not drawn) [Example 91, 2-(1-(1,4-diazepan-1-yl)butyl)-6,7-dichloro-3-ethylquinazolin-4(3H)-one], the inhibition constant Ki is 0.5 to 1 µM on Human σ1 receptor and less than 0.5 µM in assay [1].

On to `CCC[C@H](c1nc2ccc(Cl)cc2c(=O)n1C)N1CCCN[C@@H](C)C1` [Example 148, 6-chloro-3-methyl-2-((R)-1-((S)-3-methyl-1,4-diazepan-1-yl)butyl)quinazolin-4(3H)-one], for which the inhibitory constant (Ki) at Human σ1 receptor is more than 1 µM; in assay [1] it was less than 0.5 µM.

As to `CCC[C@H](c1nc2ncc(F)cc2c(=O)n1CC1CC1)N1CCN[C@@H](C)CC1` [Example 195, 3-(cyclopropylmethyl)-6-fluoro-2-((R)-1-((S)-5-methyl-1,4-diazepan-1-yl)butyl)pyrido[2,3-d]pyrimidin-4(3H)-one], the inhibition constant (Ki) at Human σ1 receptor is more than 1 µM; in assay [1] it was less than 0.5 µM.

Turning to `CCCC(c1nc2cc(F)c(Br)cc2c(=O)n1CCC)N1CCCN(C)CC1` (stereo not drawn) [Example 26, 6-bromo-7-fluoro-2-(1-(4-methyl-1,4-diazepan-1-yl)butyl)-3-propylquinazolin-4(3H)-one], the Ki (at Human σ1 receptor; in assay [1]) was less than 0.5 µM in each case.

Take `CCC[C@@H](c1nc2ccc(Br)cc2c(=O)n1CC)N1CCN(C)C[C@H](C)C1` [Example 37, 6-bromo-2-((S)-1-((S)-4,6-dimethyl-1,4-diazepan-1-yl)butyl)-3-ethylquinazolin-4(3H)-one]: the Ki was more than 1 µM on Human σ1 receptor and more than 5 µM in assay [1].
